{
  "source": "patent US20240385200A1",
  "about": "“COMPOSITIONS AND METHODS OF DETERMINING PH AND POTASSIUM CONCENTRATION IN SAMPLES” (The University of Chicago, priority 2023, published 2024)",
  "system": "TGN-resident K^+ channels",
  "settings": "UT HEK 293T cells; TEA 10 mM, 10 min; resting ~102 mM",
  "protocol": "EE and TGN pH and [K^+] measurements were carried out using pHlicKer^EE/TGN in HEK 293T cells transfected with hMSR1 and scFv-furin respectively. For EEs, HEK 293T cells were pulsed with 250 nM pHlicKer^EE for 10 min and chased for 10 min. For TGN, HEK 293T cells were pulsed with 250 nM pHlicKer^TGN for 90 min and chased for 90 min. Cells were washed with 1×PBS three times and then imaged. For recycling endosomes, HEK 293T cells were pulsed with 250 nM pHlicKer^RE for 15 min and chased for 30 min. Cells were washed with 1×PBS three times and then imaged using a widefield microscope.\nCalculating pH-corrected [K^+] in early endosomes, trans-Golgi network, and recycling endosomes. To correct for pH and obtain K^+ values, the Kd of pHlicKer in single endosomes was calculated based on the Kd calibration plot versus pH. The pH of the organelle was measured from the D/A values calibrated across pH 5.5-7.0. Donor (D) and acceptor (A) images were background subtracted by drawing a region of interest outside the cells. The D image was duplicated, and a threshold was set to create a binary mask. Background-subtracted D and A images were then multiplied with the binary mask to get processed D and A images.",
  "data": [
    {"smiles": "CC[N+](CC)(CC)CC.[Cl-]", "note": "[TEA, tetraethyl ammonium chloride]", "values": [
      {"measurement": "[K+]TGN", "value": "~73", "unit": "mM"}
    ]}
  ]
}
